Data on 24 compounds can be found in US20060241037A1, “Compositions comprising trefoil factor family peptides and/or mucoadhesives and proton pump ihhibitor prodrugs” (ALLERGAN INC., priority 2003, published 2006).

Data set [1] is described as follows: Pharmacokinetic study in dogs (oral / intravenous), systemic half-life by LC-MS/MS. Type of data set: in vivo, dogs (beagle). As to conditions: for T1/2 Prodrug / T1/2 PPI / half-life: Dog, SD in parenthesis; for T1/2 Prodrug: systemic half-life of intact prodrug; for T1/2 PPI / half-life: systemic half-life of the proton pump inhibitor; for half-life: beagle, blood, po, read-out: T1/2 PPI (converted); for t1/2: systemic half-life of parent PPI in dogs after oral administration. Details: key to T1/2 Prodrug: NC: plasma concentration of prodrug was too low to calculate half-life, or undetected. The procedure: (§1) Blood concentrations of the compounds omeprazole, lansoprazole, pantoprazole, rabeprazole, and test compounds were quantified using an achiral liquid chromatography tandem mass spectrometry method (LC-MS/MS). Systemic pharmacokinetic parameters were determined for omeprazole or lansoprazole using non-compartmental analysis in Watson® version 6.3, available from InnaPhase Corporation, Philadelphia, Pa.

The nature of data set [2]: Pharmacokinetic study in rats (oral / intravenous), systemic half-life by LC-MS/MS. Type of data set: in vivo, rats (Sprague-Dawley). Details: key to T1/2 Prodrug: NC: plasma concentration of prodrug was too low to calculate half-life, or undetected. As to conditions: Rat, SD in parenthesis; for T1/2 Prodrug: systemic half-life of intact prodrug; for T1/2 PPI: systemic half-life of the proton pump inhibitor. The procedure: as §1

A further data set concerns Caco-2 cells. Put plainly: Membrane permeability (Papp) across Caco-2 cell monolayer, apical to basolateral. It counts as in vitro ADME. Conditions: Caco-2, apical to basolateral, 10 μM, 37° C. The procedure:
Determination of membrane permeability in all examples described herein was accomplished by the following procedure. This procedure is also used to determine whether a given prodrug falls within the scope of those claims given herein which relate to membrane permeability.
Caco-2 cells were seeded on Costar™ 12 mm diameter, 0.4 μm pore size transwell filters, and were cultured at 37° C., 5% CO2 in a humidified tissue culture chamber.
DMEM was equilibrated as a transport buffer in 37° C. water bath an hour before experiment. The cells were then equilibrated in transport buffer for 1 hr at 37° C.
Dosing solution (10 μM) was prepared by adding a 20 μL aliquot of a 10 mM stock solution of the prodrug to 20 mL of transport buffer.
Transport across Caco-2 cell monolayer was measured at 37° C., in the apical to basolateral direction (n=3).
Transport buffer was removed from both apical and basolateral compartment of filters. Dosing solution (0.2 mL) was added to the apical compartment of the cell layers on transwell filters, and 0.8 ml fresh pre-warmed transport buffer was added to basolateral compartment. Timing was started for transport, and at 5, 20, and 60 min after transport started, sample fluid (400 μL) was collected from the basolateral compartment. Fresh transport buffer (400 μL) was added back to the basolateral compartment, and the fluid was thoroughly mixed.
The apparent permeability coefficient (Papp, cm/sec), otherwise known herein as the membrane permeability, is determined from the following relationship: Papp=J/(ACo) where J (pmol/min) is the transport rate, meaning the rate of prodrug movement through the cell layer, A (cm^2) is the filter surface area, and Co (μM) is the initial dosing concentration.
Lucifer yellow (LY) was used as a paracellular permeability reference standard to determine integrity of cell layers used in the experiments. […] Fluorescence level in basolateral fluid sampled at 5, 20, and 60 min post dose was determined using Fluostar Galaxy (BMG Labtechnologies, Durham, N.C.) at excitation/emission wavelengths of 485/520 nm. […]
On the technique in general: Caco-2 cells form a polarised layer with tight junctions and transporters.

Turning to `Cc1cc(OCC(=O)O)cc(C(C)C)c1S(=O)(=O)n1c([S+]([O-])Cc2nccc(OCC(F)(F)F)c2C)nc2ccccc21` (stereo not shown) [Compound 17], in data set [1], the T1/2 Prodrug is 89.4 min and the T1/2 PPI was 67.8 min.

In the case of `Cc1c(OCC(F)(F)F)ccnc1C[S+]([O-])c1nc2ccccc2n1S(=O)(=O)c1ccc(OCC(=O)O)cc1` (stereo not shown) [Compound 10], in data set [1], the “T1/2 Prodrug” value was “NC” and the “T1/2 PPI” value is listed as 0.989 (0.307).

Regarding `Cc1c(OCC(F)(F)F)ccnc1C[S+]([O-])c1nc2ccccc2[nH]1` (stereo not shown) [Lansoprazole, reference compound], in data set [1], the half-life was 34.4 min and the t1/2 was 34.2 min.

Turning to `COCCCOc1ccnc(C[S+]([O-])c2nc3ccccc3n2S(=O)(=O)c2cc(C(=O)O)ccc2C)c1C` (stereo not shown) [Compound 31], in data set [1], the T1/2 Prodrug was 50.6 min and the T1/2 PPI was 51.3 min.

For the compound `Cc1c(OCC(F)(F)F)ccnc1C[S+]([O-])c1nc2ccccc2n1S(=O)(=O)c1ccc(C(=O)O)cc1` (stereo not shown) [Compound 18], in data set [1], the T1/2 Prodrug was 5.39 min and the T1/2 PPI is 54.5 min.

For the compound `COCCCOc1ccnc(C[S+]([O-])c2nc3ccccc3n2S(=O)(=O)c2cccc(C(=O)O)c2)c1C` (stereo not shown) [Compound 30], in data set [1], the T1/2 Prodrug is 67.2 min and the T1/2 PPI was 29.5 min.

For the compound `Cc1c(OCC(F)(F)F)ccnc1C[S+]([O-])c1nc2ccccc2n1S(=O)(=O)c1ccc(CC(=O)O)cc1C(C)C` (stereo not shown) [Compound 15], in data set [1], the “T1/2 Prodrug” value is reported as “NC” and the T1/2 PPI is 55.4 min.

For the compound `Cc1cc(OCC(=O)O)cc(C)c1S(=O)(=O)n1c([S+]([O-])Cc2nccc(OCC(F)(F)F)c2C)nc2ccccc21` (stereo not shown) [Compound 34], the “T1/2 Prodrug” value in data set [2] is listed as “NC”. The “T1/2 PPI” value in data set [2] (in h) is listed as 1.11 (0.71).

In the data set with Caco-2 cells, `COc1ccc(S(=O)(=O)n2c([S+]([O-])Cc3nccc(OCC(F)(F)F)c3C)nc3ccccc32)cc1C(=O)O` (stereo not shown) [Compound 8] displayed a Permeability of 0.23 ×10⁻⁶ cm/s. For the same compound, the “T1/2 Prodrug” value in data set [2] is reported as “NC”. In addition, the “T1/2 PPI” value in data set [2] (in h) is reported as 1.80 (1.20). Also, in data set [1], the “T1/2 Prodrug” value is listed as “NC”, the T1/2 PPI was 64.8 min and the t1/2 is 66 min.

With `COc1ccc2[nH]c([S+]([O-])Cc3ncc(C)c(OC)c3C)nc2c1` (stereo not shown) [Omeprazole, reference compound], in data set [1], the half-life was 41.8 min and the t1/2 was 42 min.

Regarding `Cc1c(OCC(F)(F)F)ccnc1C[S+]([O-])c1nc2ccccc2n1S(=O)(=O)c1ccc(OCC(C)(C)C(=O)O)cc1` (stereo not shown) [Compound 11], the “T1/2 Prodrug” value in data set [2] and in data set [1] was “NC” in each case. The “T1/2 PPI” value in data set [2] (in h) is 0.933 (1.009); in data set [1], 0.873 (0.288).

In the case of `Cc1c(OCC(F)(F)F)ccnc1C[S+]([O-])c1nc2ccccc2n1S(=O)(=O)c1ccc(C(=O)O)c(OCC(=O)O)c1` (stereo not shown) [Compound 16], the “T1/2 Prodrug” value in data set [2] and in data set [1] was “NC” in each case. In addition, the “T1/2 PPI” value in data set [2] (in h) was 1.86 (0.74); in data set [1] it was 60 min.

For `COCCCOc1ccnc(C[S+]([O-])c2nc3ccccc3n2S(=O)(=O)c2ccc(C(=O)O)cc2)c1C` (stereo not shown) [Compound 33], in data set [1], the T1/2 Prodrug was 44.8 min and the T1/2 PPI is 53.6 min.

Take `COc1ccc(S(=O)(=O)n2c([S+]([O-])Cc3nccc(OCC(F)(F)F)c3C)nc3ccccc32)cc1CCC(=O)O` (stereo not shown) [Compound 38]: in data set [2] (in h), the “T1/2 Prodrug” value is given as 1.04 (0.35) and the “T1/2 PPI” value is 1.43 (0.42).

For `Cc1ccc(C(=O)O)cc1S(=O)(=O)n1c([S+]([O-])Cc2nccc(OCC(F)(F)F)c2C)nc2ccccc21` (stereo not shown) [Compound 13], the “T1/2 Prodrug” value in data set [2] is “NC”; in data set [1] it was 7.32 min. The results for the “T1/2 PPI” value in data set [2] (in h) and in data set [1] were 2.35 (1.22) and 106 min, respectively.

Take `Cc1ccc(S(=O)(=O)n2c([S+]([O-])Cc3nccc(OCC(F)(F)F)c3C)nc3ccccc32)cc1CCC(=O)O` (stereo not shown) [Compound 19]: in data set [1], the T1/2 Prodrug is 110 min and the T1/2 PPI is 29 min.

Consider `Cc1c(OCC(F)(F)F)ccnc1C[S+]([O-])c1nc2ccccc2n1S(=O)(=O)c1ccc(OCC(=O)O)c(OCC(=O)O)c1` (stereo not shown) [Compound 35], for which the “T1/2 Prodrug” value in data set [2] is given as “NC”. Besides, in data set [2] (in h), the “T1/2 PPI” value was 1.84 (0.87).

As for `Cc1cc(C(=O)O)ccc1S(=O)(=O)n1c([S+]([O-])Cc2nccc(OCC(F)(F)F)c2C)nc2ccccc21` (stereo not shown) [Compound 37], the “T1/2 Prodrug” value in data set [2] was “NC”. Further, the “T1/2 PPI” value in data set [2] (in h) is on record as 2.19 (0.80).

As to `Cc1c(OCC(F)(F)F)ccnc1C[S+]([O-])c1nc2ccccc2n1S(=O)(=O)c1ccc(CC(=O)O)cc1` (stereo not shown) [Compound 9], the Permeability in the data set with Caco-2 cells was 0.34 ×10⁻⁶ cm/s. Also, the “T1/2 Prodrug” value in data set [2] was “NC”. Moreover, the “T1/2 PPI” value in data set [2] (in h) is recorded as 0.341 (0.151). For the same compound, in data set [1], the “T1/2 Prodrug” value is given as “NC”, the T1/2 PPI is 53.6 min and the t1/2 is 53.4 min.

On to `COCCCOc1ccnc(C[S+]([O-])c2nc3ccccc3n2S(=O)(=O)c2c(C)cc(OCC(=O)O)cc2C)c1C` (stereo not shown) [Compound 32], for which, in data set [1], the T1/2 Prodrug is 31.6 min and the T1/2 PPI was 91.2 min.

Take `Cc1c(OCC(F)(F)F)ccnc1C[S+]([O-])c1nc2ccccc2n1S(=O)(=O)c1ccc(C(=O)O)cc1` (stereo not shown) [Compound 36]: the “T1/2 Prodrug” value in data set [2] was “NC”. In data set [2] (in h), the “T1/2 PPI” value is 0.389 (0.085).

Regarding `COc1ccc(C(=O)O)cc1S(=O)(=O)n1c([S+]([O-])Cc2nccc(OCC(F)(F)F)c2C)nc2ccccc21` (stereo not shown) [Compound 14], the “T1/2 PPI” value in data set [2] (in h) is 0.536 (0.217); in data set [1], 83.4 min. Also, the T1/2 Prodrug in data set [1] was 7.08 min.

Take `Cc1c(OCC(F)(F)F)ccnc1C[S+]([O-])c1nc2ccccc2n1S(=O)(=O)c1cccc(C(=O)O)c1` (stereo not shown) [Compound 7]: the Permeability in the data set with Caco-2 cells amounted to 0.16 ×10⁻⁶ cm/s. The “T1/2 Prodrug” value in data set [2] was “NC”; in data set [1], 12.4 min. In addition, the results for the “T1/2 PPI” value in data set [2] (in h) and in data set [1] were 1.93 (1.41) and 53.6 min, respectively. Further, the t1/2 in data set [1] is 53.4 min.

As for `Cc1c(OCC(F)(F)F)ccnc1C[S+]([O-])c1nc2ccccc2n1S(=O)(=O)c1ccc(CC(=O)O)c(CC(=O)O)c1` (stereo not shown) [Compound 12], in data set [1], the “T1/2 Prodrug” value is “NC” and the T1/2 PPI was 55.9 min.
